Consider four molecules from patent US20090137641A1, “Potassium Channel Activators for the Prevention and Treatment of Dystonia and Dystonia-Like Symptoms” (priority 2006, published 2009).

The subject of one data set is dt^sz mutant hamster. It counts as in vivo, Syrian golden hamsters. The conditions noted are these: for Maximum severity 1st h, drug: individual animals and Mean, score 0-6; for Latency to onset (min), Drug: time to stage 2, mean ± S.E.; for suppressing the symptoms of dystonia (summary statement): summary for the two animal models of dystonia/dyskinesia, no dose given; for Latency max (min), drug: latency to stage 6. From the text:
Animals The dt^sz mutant hamsters (Syrian golden hamsters), used in the present experiments, were obtained by selective breeding as described in detail elsewhere (Richter and Löscher, 1998). In this inbred line of mutant hamsters the motor disturbances are transmitted by a recessive gene. All animal groups consisted of male and female hamsters, because there was no indication of sex-related differences in the severity of dystonia or in the response to drugs (Richter and Löscher, 1998). The animals were born and kept under controlled environmental conditions (23-25° C., 50-60% humidity, 13 h light/11 h dark cycle) with free access to standard Altromin 7204 diet and water. In cases of oral administrations the food was deprived for 2 h prior to the experiments. All experiments were carried out in the morning (08.30-12.00 a.m.) at controlled temperatures (23-25° C.).
Induction of dystonic episodes and severity-score of dystonia. […] After this procedure, dt^sz hamsters develop a sequence of abnormal movements and postures. Dystonia is the predominant symptom in these animals. The severity of dystonia can be rated by following score-system (Richter and Löscher, 1998): stage 1, flat body posture; stage 2, facial contortions, rearing with forelimbs crossing, disturbed gait with hyperextended forepaws; stage 3, hyperextended hindlimbs so that the animals appear to walk on tiptoes; stage 4, twisting movements and loss of balance; stage 5, hindlimbs hyperextended caudally; stage 6, immobilisation in a twisted, hunched posture with hind- and forelimbs tonically extended forward. After reaching the individual maximum stage the hamsters recover within 2-5 hours. The individual maximum stage of dystonia is usually reached within 3 hours after the hamsters were placed into the new cage. Therefore, the animals have to be observed for 3 h after the induction of dystonic attacks to determine the individual maximum stage reached after administrations of drugs or of vehicle (for pre- and post-drug control recordings).
In the present study, all animals were examined for the presence of dystonia after weaning at the age of 21 days by the triple stimulation procedure, including injections of saline. […] All groups of mutant hamsters used for investigations were repeatedly tested by triple stimulations (injections of saline) every 2 to 3 days after weaning until the severity of dystonia and latencies to the different stages were reproducible. The drug experiments were done in 30-42 days old hamsters, i.e. at an age of the maximum severity of dystonia.
Drug experiments The effects of the Kv7.2/7.3 channel activators retigabine (5, 7.5 and 10 mg/kg i.p. and 10 and 20 mg/kg p.o.) and flupirtine (10 and 20 mg/kg i.p.) were examined in groups of 6-10 dt^s/z hamsters. The total number of animals used for the present experiments was 68. The compounds were freshly dissolved in saline prior the experiments. Dystonic attacks were induced by the procedure of triple stimulation, as described above, but instead of saline the active compound was injected (injection volume: 5 ml/kg i.p. or p.o.). Pre- and post-drug control trials with the vehicle (injection volume: 5 ml/kg saline i.p. or p.o.) were undertaken 2-3 days before and 2-3 days after drug testing in the same animals. […] During this period the severity of dystonia, the latencies to the different stages and the side effects were noted. The rater of the severity score (and of the latencies to stages) was unaware whether the animals were treated with vehicle or an active principle. A second person who had done the preparation of the solutions observed the animals for behavioural effects. The side effects were not quantified, but locomotor activity and ataxia were determined according to a score system, as previously described (Löscher and Richter, 1994). […]

The subject of data set [1] is L-DOPA induced dyskinesia in 6-OHDA lesioned rats. In words: chronic model of L-DOPA induced dyskinesia in unilaterally 6-OHDA lesioned rats (dyskinesia score). Format: in vivo. Further details: side effects: dose or concentration left out as unconfirmed. The source says: Method: The model has been developed by Cenci, Lee and Bjorklund (L-DOPA-induced dyskinesia in the rat is associated with striatal overexpression of prodynorphin- and glutamic acid decarboxylase mRNA, Eur J. Neurosci. 1998; 10:2694-706) and was modified to show more severe dyskinesia. In brief, rats are first unilaterally lesioned in the medial forebrain bundle resulting in a near complete loss of the mesostriatal dopamine pathway. After a recovery, rats receive daily doses of both, L-DOPA and benserazide. Within less than 3 weeks, rats develop typical dyskinetic movements, both affecting their forearms and the oral regions. […] The dyskinesia can be quantified using an easy and reliable scoring system developed by Cenci et al.
Dopamine-denervating lesions were performed by unilateral injections of 8 μg 6-OHDA in the left medial forebrain bundle of female Sprague-Dawley rats. All rats were tested for amphetamine-induced rotational behaviour 2 weeks after the injection. Rats showing >4 ipsilateral rotations/min over a 90-minute period were presumed to have a striatal dopamine depletion of more than 90%. At 4 weeks post lesion, 2 groups started to receive chronic treatment with either 20 mg/kg levodopa and 15 mg/kg benserazide or vehicle for 20 days. For rating, dyskinesia was classified into three subtypes (limb, axial and orolingual) and scored from 0 (=absent) to 4 (=permanent, not suppressible) over 200 minutes and every 30 minutes.
Results and Discussion: For drug testing, retigabine (2.5 and 5 mg/kg) was administered additional to levodopa and vehicle respectively. Effects of drug action in comparison to vehicle controls were detected by adding up the severity scores of each observation time.
To test the effect of flupirtine, the compound was administered at the dose of 10 mg/kg i.p. after administration of L-DOPA in these rats. A full cross over design was utilized to account for individual variability. […] The studies are ongoing and will we extended to cover a full dose range. Also, other neuronal potassium channel openers covered by the patent application will be tested. […]

[2] abbreviates: mean of 10 animals, 20 mg/kg i.p., age 36-38 days of life.
The mark [3] stands for this setting: 20 mg/kg p.o., first hour after administration.

Several values for one entry are separate records, joined by “and”; a condition that tells them apart may be missing. Equal values may be shown once. Read-outs that look alike come from different tables or passages of the source.

In the case of `CCOC(=O)Nc1ccc(NCc2ccc(F)cc2)nc1N` [Flupirtine, ethyl-N-[2-amino-6-(4-fluorophenylmethylamino)pyridin-3-yl]-carbamate], in the data set with dt^sz mutant hamster (10 mg/kg i.p.), the antidystonic effects entry is recorded as “did not exerted significant antidystonic effects”; the “Maximum severity 1st h, drug” value is 3 score (6×) and 2 score (2×). Besides, in the data set with dt^sz mutant hamster (10.0 mg/kg i.p., n=8), the “Latency to onset (min), Drug” value is recorded as 6.9 ± 1.6 min. Also, the adverse effects result in the data set on dt^sz mutant hamster (10 mg/kg i.p., within the first hour after administration) is “moderate hypolocomotion and ataxia”. Besides, in the data set on dt^sz mutant hamster (20 mg/kg i.p.), the ataxia result is on record as “more marked ataxia (lasting up to 90 min)” and the “latency to onset of dystonia” value was “increased the latency to onset of dystonia”. The progression of dystonia result with dt^sz mutant hamster (20 mg/kg i.p., first and second h) is given as “delayed the progression of dystonia”. In addition, the locomotion result with dt^sz mutant hamster (20 mg/kg i.p., hyperlocomotion 15-60 min after injection) is recorded as “unequivocal hypolocomotion (5 to 15 min after injection) followed by hyperlocomotion”. Besides, the “maximum severity of dystonia” value in the data set on dt^sz mutant hamster (20 mg/kg i.p., third h) is reported as “reduced the maximum severity”. For the same molecule, the “Latency to onset (min), Drug” value in the data set on dt^sz mutant hamster (20.0 mg/kg i.p., n=10, *P<0.05) is on record as 13.8 ± 3.8* min. Further, the “Maximum severity 1st h (score of dystonia), drug” value in the data set with dt^sz mutant hamster (individual animals, 20 mg/kg i.p. (in 0.9% NaCl), dt^sz hamsters, age 36-38 days of life) was determined as 2 score. In addition, in the data set with dt^sz mutant hamster (individual animals, 20 mg/kg i.p., age 36-38 days of life), the “Latency max (latency to stage 6), drug” value amounted to 154 min. For the same molecule, in the data set with dt^sz mutant hamster (setting [2]), the “Latency onset (latency on stage 2), drug, Mean” value was found to be 13.8 min; the “Maximum severity 1st h (score of dystonia), drug, Mean” value is given as 2.0 score; the “Maximum severity 2nd h (score of dystonia), drug, Mean” value amounted to 2.6 score; the “Maximum severity 3rd h (score of dystonia), drug, Mean” value was determined as 2.9 score. The “suppressing the symptoms of dystonia (summary statement)” value with dt^sz mutant hamster is given as “found to be effective”. Also, the tolerability result in data set [1] (10 mg/kg i.p. after administration of L-DOPA) is listed as “well tolerated”. The dyskinetic symptoms result in data set [1] (10 mg/kg i.p. after administration of L-DOPA, cross over design) is reported as “capable of suppressing the typical dyskinetic symptoms”.

Consider `CCOC(=O)Nc1ccc(NCc2ccc(F)cc2)cc1N` [Retigabine, 2-amino-4-(4-fluorobenzylamino)-1-ethoxycarbonyl-aminobenzene], for which the “Latency max (min), drug” value was 43 min and 87 min and 39 min in the data set with dt^sz mutant hamster (5 mg/kg i.p., individual animals); 149 min with dt^sz mutant hamster (7.5 mg/kg i.p., individual animals); 168 min and 148 min in the data set with dt^sz mutant hamster (10 mg/kg p.o., individual animals); 104 min in the data set on dt^sz mutant hamster (20 mg/kg p.o., individual animals). The “Latency to onset (min), Drug” value in the data set on dt^sz mutant hamster (5.0 mg/kg i.p., n=9) is recorded as 27.1 ± 17.7 min; in the data set with dt^sz mutant hamster (7.5 mg/kg i.p., n=6, *P<0.05) it was 11.8 ± 1.0* min; in the data set on dt^sz mutant hamster (10.0 mg/kg i.p., n=9), 7.1 ± 2.9 min; with dt^sz mutant hamster (10.0 mg/kg p.o., n=7), 4.9 ± 2.9 min; in the data set on dt^sz mutant hamster (20.0 mg/kg p.o., n=10), 9.6 ± 2.0 min. Further, in the data set with dt^sz mutant hamster (10 mg/kg i.p., first 5 min after injection), the pain after injection entry is “writhed with pain”. Also, the “Maximum severity 1st h, drug” value with dt^sz mutant hamster (10 mg/kg p.o.) was 3 score (6×) and 2 score; with dt^sz mutant hamster (20 mg/kg p.o.), 2 score (9×) and 3 score. Further, in the data set on dt^sz mutant hamster (10 mg/kg p.o., two hamsters), the locomotor activity result is recorded as “moderate reduction of the locomotor activity”. For the same molecule, the ataxia entry in the data set with dt^sz mutant hamster (setting [3]) is recorded as “seven animals exhibited moderate ataxia”. In the data set on dt^sz mutant hamster (setting [3]), the hypolocomotion entry was “five hamsters showed moderate hypolocomotion”. Further, the general condition result in the data set with dt^sz mutant hamster (four hamsters, 5 mg/kg i.p. five days after 10 mg/kg i.p., one euthanized, dilated colon) is on record as “bad general condition”. In the data set with dt^sz mutant hamster (i.p. injection, within the first h after administration), the behavioural effects result was “moderate to unequivocal hypolocomotion (sometimes interrupted by short lasting periods of increased locomotor activity) and ataxia”. Also, the side effects result was “did not exert severe side effects” in the data set with dt^sz mutant hamster (oral doses of 10 and 20 mg/kg); “marked hypolocomotion and ataxia” in data set [1] (higher dosage, first hour of observation).

`O=C1c2ccccc2C(Cc2ccncc2)(Cc2ccncc2)c2ccccc21` [XE-991, 10,10-bis(4-pyridinylmethyl)-9(10H)-anthracenone]: the side effects result in the data set on dt^sz mutant hamster (6 mg/kg as printed, two out of 8 animals, facial contortions 10-20 min after administration) is “moderate to unequivocal hyperlocomotion and moderate ataxia (up to 180 min) and marked initial facial contortions”; in the data set with dt^sz mutant hamster (the higher dose, all hamsters), “facial contortions, salivation and increased defecation”. The “latency to onset of dystonia” value in the data set with dt^sz mutant hamster (i.p., not illustrated) was “tended to be decreased”. Also, in the data set with dt^sz mutant hamster (the higher dose, first h after administration), the “side effects: locomotion and ataxia” value is “unequivocal hyperlocomotion and ataxia”.

With `COc1ccc(Cl)cc1C1(F)C(=O)Nc2cc(C(F)(F)F)ccc21` (stereo not shown) [maxipost, 3-(5-chloro-2-methoxyphenyl)-1,3-dihydro-3-fluoro-6-(trifluoromethyl)-2H-indole-2-one], in the data set with dt^sz mutant hamster, the “suppressing the symptoms of dystonia (summary statement)” value is reported as “found to be active”.
